Assay results as given in ChEMBL document CHEMBL1201862, “PubChem BioAssay data set” (2004).
The source made the active and inactive calls.

Key:
cells = assay type: functional, cell-based; conditions: HEK-CNG
[1] = inhibitors of clade B AD8 Env fusion, dose response, cell-based, cherry-pick (AID 652062); assay type: functional;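 note: luciferase signal from cell-cell fusion driven by HIV-1 clade B AD8 Env; potency is for inhibitors of fusion seen as a drop in luminescence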
BJ [2] = experiment: cytotoxicity toward BJ-TERT-LT-ST fibroblasts, dose response, cell-based, RAS-independent, luminescence (AID 1935); assay type: functional; conditions: Homo sapiens;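 note: BJ fibroblasts immortalized with TERT plus LT and ST oncogenes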
BJ [3] = experiment: cytotoxicity toward BJ-TERT fibroblasts, dose response, cell-based, RAS-independent, luminescence (AID 1933); assay type: functional; conditions: Homo sapiens
Caspase-8 = Caspase-8 (Homo sapiens, UniProt Q14790); experiment: caspase-8 inhibition counter-screen, dose response, selectivity assay for caspase-6 inhibitor project, biochemical, Z-IETD-R110 fluorescence, cherry-picked samples (AID 743294)
Caspase-8, sequence (Q14790 217-374 limits assumed): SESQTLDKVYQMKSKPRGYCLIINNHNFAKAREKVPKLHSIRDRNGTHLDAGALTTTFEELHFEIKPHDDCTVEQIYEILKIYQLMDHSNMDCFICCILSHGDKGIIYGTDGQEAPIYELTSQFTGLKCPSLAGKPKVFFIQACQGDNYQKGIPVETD
Caspase-8, sequence (Q14790 385-479 limits assumed): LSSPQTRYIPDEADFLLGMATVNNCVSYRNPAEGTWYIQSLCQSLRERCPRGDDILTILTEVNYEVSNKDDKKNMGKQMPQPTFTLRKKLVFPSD

[4] = molecular target: T1, Apoptotic protease-activating factor 1 (Homo sapiens, UniProt O14727); assay type: functional
T1 sequence (O14727 whole entry): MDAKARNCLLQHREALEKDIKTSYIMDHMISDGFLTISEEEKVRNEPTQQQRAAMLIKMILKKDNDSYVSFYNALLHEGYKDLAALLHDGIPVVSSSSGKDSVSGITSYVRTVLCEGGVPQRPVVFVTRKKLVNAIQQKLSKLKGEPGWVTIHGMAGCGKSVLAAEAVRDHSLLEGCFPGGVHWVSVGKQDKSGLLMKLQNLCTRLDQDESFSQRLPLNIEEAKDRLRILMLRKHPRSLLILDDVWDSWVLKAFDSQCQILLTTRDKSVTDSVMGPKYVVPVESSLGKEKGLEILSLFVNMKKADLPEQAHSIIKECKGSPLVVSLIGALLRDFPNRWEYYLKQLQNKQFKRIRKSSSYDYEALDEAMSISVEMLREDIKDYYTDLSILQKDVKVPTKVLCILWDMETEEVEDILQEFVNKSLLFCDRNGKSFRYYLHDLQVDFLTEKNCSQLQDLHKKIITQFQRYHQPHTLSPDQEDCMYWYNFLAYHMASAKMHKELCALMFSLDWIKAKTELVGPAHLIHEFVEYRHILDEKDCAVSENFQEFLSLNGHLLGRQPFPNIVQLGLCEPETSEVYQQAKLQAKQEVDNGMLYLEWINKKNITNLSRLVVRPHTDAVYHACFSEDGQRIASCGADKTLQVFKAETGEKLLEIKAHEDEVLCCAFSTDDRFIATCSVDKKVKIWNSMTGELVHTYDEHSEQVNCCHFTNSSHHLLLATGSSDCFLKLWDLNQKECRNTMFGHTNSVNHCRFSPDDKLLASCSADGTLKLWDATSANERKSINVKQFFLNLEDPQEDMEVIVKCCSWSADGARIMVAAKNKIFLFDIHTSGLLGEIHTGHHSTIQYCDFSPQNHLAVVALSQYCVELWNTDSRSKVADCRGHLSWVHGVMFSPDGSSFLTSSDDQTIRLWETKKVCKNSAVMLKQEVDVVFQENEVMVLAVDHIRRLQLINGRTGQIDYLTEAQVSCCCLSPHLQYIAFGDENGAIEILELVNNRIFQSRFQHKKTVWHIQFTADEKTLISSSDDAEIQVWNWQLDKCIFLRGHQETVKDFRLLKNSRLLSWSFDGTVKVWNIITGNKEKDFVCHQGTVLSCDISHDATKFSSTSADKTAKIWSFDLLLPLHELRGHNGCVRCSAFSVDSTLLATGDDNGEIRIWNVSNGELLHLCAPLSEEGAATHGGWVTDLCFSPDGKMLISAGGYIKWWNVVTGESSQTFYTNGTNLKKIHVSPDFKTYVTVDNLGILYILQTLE

[5] = molecular target: T2, Histone-lysine N-methyltransferase NSD2 (Homo sapiens, UniProt O96028); assay type: biochemical
T2 sequence (O96028 whole entry): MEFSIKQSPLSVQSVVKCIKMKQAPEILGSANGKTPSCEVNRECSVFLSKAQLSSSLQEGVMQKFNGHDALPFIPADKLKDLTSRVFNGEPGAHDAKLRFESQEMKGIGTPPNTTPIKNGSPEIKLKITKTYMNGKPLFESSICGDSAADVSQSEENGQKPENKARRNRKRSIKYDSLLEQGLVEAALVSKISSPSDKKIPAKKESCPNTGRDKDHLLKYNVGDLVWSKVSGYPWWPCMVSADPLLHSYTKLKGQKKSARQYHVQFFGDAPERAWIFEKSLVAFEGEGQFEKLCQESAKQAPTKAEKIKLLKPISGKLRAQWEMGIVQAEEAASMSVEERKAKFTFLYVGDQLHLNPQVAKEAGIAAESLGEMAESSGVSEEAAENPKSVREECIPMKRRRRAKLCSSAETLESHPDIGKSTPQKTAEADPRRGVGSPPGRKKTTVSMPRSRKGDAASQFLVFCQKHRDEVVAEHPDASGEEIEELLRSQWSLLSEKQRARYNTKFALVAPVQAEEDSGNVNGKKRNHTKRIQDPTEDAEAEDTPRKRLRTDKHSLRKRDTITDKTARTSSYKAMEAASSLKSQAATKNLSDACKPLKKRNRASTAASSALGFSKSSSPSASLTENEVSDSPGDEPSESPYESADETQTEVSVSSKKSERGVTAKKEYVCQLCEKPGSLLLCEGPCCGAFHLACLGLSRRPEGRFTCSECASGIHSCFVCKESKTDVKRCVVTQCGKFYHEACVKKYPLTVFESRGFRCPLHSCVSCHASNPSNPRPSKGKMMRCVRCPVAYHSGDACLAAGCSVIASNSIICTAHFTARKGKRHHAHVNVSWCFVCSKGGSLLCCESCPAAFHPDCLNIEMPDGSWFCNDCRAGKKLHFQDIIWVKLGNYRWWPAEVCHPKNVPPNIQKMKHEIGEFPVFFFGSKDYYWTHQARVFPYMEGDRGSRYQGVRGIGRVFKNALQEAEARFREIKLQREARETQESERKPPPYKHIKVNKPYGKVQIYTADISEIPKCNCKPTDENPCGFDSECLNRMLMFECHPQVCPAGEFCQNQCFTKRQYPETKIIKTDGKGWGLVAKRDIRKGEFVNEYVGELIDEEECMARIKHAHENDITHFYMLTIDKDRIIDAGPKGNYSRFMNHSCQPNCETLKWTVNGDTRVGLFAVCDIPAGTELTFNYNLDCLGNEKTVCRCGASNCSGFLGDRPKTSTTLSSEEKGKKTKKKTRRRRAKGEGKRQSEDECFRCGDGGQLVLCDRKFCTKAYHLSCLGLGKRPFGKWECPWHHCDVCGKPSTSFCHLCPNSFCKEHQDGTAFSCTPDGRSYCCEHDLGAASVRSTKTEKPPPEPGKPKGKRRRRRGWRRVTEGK

Structure (SMILES): CCCCCCCCCCn1c2c(c(=N)c3c1CCC3)CCC2
- EC50 (cells): 15.8 µM (inactive)
- AC50 [1]: 0.726 µM (active)
- EC50 (BJ [2]): 5.73 µM (inconclusive)
- EC50 (BJ [3]): 3.26 µM (inconclusive)

Structure (SMILES): Cn1nc(-c2ccccn2)nc2c(=O)n(C)c(=O)nc1-2
- AC50 (Caspase-8): 0.436 µM (active)
- IC50 [4]: 0.079 µM (active)

Structure (SMILES): COc1ccc(NS(=O)(=O)c2ccc3c(c2)[C@H]2C=CC[C@H]2[C@@H](c2ccc(C(=O)O)cc2)N3)cc1
- AC50 [5]: > 20 µM (inactive)
